{
  "source": "patent US20040191254A1",
  "about": "“Method of treatment of thyroid cancer” (priority 2001, published 2004)",
  "key": {"NIH3T3-RETC634Y cells": {"tested_on": "NIH3T3-RETC634Y cells", "assay": "Growth of NIH3T3 cells expressing constitutively active RET Cys634Tyr", "assay_type": "cell-based", "details": "20 nM or 30 nM for 9 days, 5% or 1% serum (FIG. 1)", "description": "(§1) The indicated cell lines are allowed to plate overnight in 6-well plates (NIH3T3 cells at 5×10^4; 3T3-RETC634Y at 2×10^4). They are then grown in the presence of no PKI166, 20 nM PKI166 or 30 nM PKI166 for 9 days, with media changes every 3 days. Bars represent the X±SD of cell counts in 3 independent experiments. The first three columns show the results in NIH3T3-RetCys634Tyr in 5% serum, the next three columns show the results in NIH3T3-RetCys634Tyr in 1% serum and the last two columns the results in NIH3T3 in 5% serum (only vehicle and 30 nM PKI 166).\n(§2) […] is the most common germine mutation of RET in multiple endocrine neoplasia type 2A stably expressing a constitutively active form of RET. NIH3T3-RETC634Y cells are transformed, as evidenced by growth in low serum conditions, colony formation in soft agar, and tumor formation in nude mice. […] PKI166 has no effect on growth of wild-type NIH3T3 cells grown in 5% serum (FIG. 1)."}, "RET/PTC3": {"molecular_target": "T1, RET/PTC3 (Homo sapiens, UniProt P07949)", "T1 construct": "expressed in transfected cells; host or cells: PCCL3 thyroid cell line (clone RET/PTC3-5), doxycycline-inducible expression", "T1 sequence (P07949 with tags, fused parts or gaps)": "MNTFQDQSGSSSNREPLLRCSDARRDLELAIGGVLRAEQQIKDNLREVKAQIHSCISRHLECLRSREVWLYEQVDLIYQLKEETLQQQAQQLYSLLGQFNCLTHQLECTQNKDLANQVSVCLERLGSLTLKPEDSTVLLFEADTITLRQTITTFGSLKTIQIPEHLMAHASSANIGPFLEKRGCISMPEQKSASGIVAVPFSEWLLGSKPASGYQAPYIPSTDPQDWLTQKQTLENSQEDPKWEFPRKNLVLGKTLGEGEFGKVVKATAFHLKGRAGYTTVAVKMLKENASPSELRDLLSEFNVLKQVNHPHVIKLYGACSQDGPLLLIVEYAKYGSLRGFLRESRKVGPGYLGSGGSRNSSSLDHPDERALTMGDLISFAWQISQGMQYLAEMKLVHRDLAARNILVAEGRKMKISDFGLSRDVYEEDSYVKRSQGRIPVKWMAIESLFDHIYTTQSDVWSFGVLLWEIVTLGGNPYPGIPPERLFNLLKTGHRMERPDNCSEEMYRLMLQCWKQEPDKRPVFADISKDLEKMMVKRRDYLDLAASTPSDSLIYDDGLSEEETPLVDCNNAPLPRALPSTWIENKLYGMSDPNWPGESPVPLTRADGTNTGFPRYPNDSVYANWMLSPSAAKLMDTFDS", "assay": "RET/PTC autophosphorylation, in vitro immunokinase assay of RET-IP extracts from RET/PTC3-5 cells", "assay_type": "biochemical", "details": "RET-IP extracts from RET/PTC3-5 cells treated with doxycycline for 48 h", "source_text": "In order to explore the activity of a compound which decreases the activity of the EGF on RET kinase, for example, a well-differentiated clonal thyroid cell line, PCCL3, conditionally expressing either RET/PTC3 or RET/PTC1 in a tetracyclin (doxycyclin)-dependent manner as described below can be used. The activation of expression of RET/PTC1 or 3 results in dimerization, autophosphorylation, and association with a number of signaling intermediates including Shc and PLCγ. […]\nConfluent T-75 flasks are washed with ice cold PBS containing 0.2 mM sodium ortho-vanadate, Cells are then lysed with cold RIPA buffer 1.8 ml (20 mM Tris, pH 7.4, 150 mM NaCl, 1% Nonidet P-40, 1% Tween 20, 20 mM sodium fluoride, 1 mM sodium ortho-vanadate, 1 mM EGTA, […], 0.2 mM PMSF, with Sigma Protease inhibitor mix) with constant agitation at 4 C for 20 min. […] Proteins are subjected to SDS-PAGE gel (7.5%), their phosphorylation measured by Phosphorimager densitometry (Molecular Dynamics, Sunnyvale, Calif.) after transfer to nitrocellulose membranes. Phosphorylation is then normalized to total RET protein in the IP determined by Western analysis using goat polyclonal anti-RET antibody (SantaCruz). […]"}, "wild-type NIH3T3 cells": {"tested_on": "wild-type NIH3T3 cells", "assay": "Growth of wild-type NIH3T3 cells", "assay_type": "cell-based", "details": "5% serum; 30 nM, 9 days (FIG. 1)", "description": "as §1, §2"}, "insulin receptor": {"molecular_target": "T2, insulin receptor (Homo sapiens, UniProt P06213)", "T2 construct": "expressed in transfected cells; host or cells: CHO-wt IR cells", "T2 sequence (P06213 28-1382, species assumed)": "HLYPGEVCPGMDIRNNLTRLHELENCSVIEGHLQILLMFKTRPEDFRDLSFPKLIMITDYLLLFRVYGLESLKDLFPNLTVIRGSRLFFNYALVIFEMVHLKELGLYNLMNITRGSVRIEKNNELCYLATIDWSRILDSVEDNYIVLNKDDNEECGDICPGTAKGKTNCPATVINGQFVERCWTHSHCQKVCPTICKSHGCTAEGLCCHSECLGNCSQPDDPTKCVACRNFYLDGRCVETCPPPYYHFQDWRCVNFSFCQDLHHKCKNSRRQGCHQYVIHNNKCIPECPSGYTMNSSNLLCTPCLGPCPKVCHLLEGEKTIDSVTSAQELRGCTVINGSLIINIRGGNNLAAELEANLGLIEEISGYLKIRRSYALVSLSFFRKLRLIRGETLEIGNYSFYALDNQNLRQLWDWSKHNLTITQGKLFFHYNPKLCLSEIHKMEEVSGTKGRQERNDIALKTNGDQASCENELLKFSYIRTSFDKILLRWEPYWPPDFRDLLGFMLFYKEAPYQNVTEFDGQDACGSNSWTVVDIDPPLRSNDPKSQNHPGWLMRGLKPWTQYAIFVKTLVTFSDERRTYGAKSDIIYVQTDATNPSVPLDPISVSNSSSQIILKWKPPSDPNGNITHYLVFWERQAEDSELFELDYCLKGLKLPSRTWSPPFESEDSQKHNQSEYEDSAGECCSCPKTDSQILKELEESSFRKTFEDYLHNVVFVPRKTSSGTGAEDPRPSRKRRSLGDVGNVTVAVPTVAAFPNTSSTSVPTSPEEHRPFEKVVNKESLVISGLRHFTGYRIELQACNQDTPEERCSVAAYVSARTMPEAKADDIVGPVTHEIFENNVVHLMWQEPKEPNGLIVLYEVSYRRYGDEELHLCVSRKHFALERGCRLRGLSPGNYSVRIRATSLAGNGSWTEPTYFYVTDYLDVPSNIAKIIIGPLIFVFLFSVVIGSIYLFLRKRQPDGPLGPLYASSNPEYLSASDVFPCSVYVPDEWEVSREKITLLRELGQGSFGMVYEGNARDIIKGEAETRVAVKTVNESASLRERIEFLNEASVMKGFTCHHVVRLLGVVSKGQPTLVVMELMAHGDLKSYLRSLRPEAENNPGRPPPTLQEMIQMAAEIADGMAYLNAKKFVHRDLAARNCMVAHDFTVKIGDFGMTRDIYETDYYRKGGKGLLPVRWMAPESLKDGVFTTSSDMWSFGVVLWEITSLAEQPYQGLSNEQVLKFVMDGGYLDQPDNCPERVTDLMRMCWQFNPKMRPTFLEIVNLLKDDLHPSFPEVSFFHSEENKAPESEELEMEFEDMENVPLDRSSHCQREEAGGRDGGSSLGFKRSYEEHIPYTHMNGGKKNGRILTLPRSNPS", "assay": "Insulin receptor autophosphorylation, immunokinase assay of CHO-wt-IR cells", "assay_type": "biochemical"}, "EGF-R": {"molecular_target": "T3, EGF-R (Homo sapiens, UniProt P00533)", "T3 construct": "The human squamous-cell carcinoma cell line A431 stably overexpressing the EGF-R; endogenous in cells; host or cells: A431 human squamous-cell carcinoma cells", "T3 sequence (P00533 25-1210)": "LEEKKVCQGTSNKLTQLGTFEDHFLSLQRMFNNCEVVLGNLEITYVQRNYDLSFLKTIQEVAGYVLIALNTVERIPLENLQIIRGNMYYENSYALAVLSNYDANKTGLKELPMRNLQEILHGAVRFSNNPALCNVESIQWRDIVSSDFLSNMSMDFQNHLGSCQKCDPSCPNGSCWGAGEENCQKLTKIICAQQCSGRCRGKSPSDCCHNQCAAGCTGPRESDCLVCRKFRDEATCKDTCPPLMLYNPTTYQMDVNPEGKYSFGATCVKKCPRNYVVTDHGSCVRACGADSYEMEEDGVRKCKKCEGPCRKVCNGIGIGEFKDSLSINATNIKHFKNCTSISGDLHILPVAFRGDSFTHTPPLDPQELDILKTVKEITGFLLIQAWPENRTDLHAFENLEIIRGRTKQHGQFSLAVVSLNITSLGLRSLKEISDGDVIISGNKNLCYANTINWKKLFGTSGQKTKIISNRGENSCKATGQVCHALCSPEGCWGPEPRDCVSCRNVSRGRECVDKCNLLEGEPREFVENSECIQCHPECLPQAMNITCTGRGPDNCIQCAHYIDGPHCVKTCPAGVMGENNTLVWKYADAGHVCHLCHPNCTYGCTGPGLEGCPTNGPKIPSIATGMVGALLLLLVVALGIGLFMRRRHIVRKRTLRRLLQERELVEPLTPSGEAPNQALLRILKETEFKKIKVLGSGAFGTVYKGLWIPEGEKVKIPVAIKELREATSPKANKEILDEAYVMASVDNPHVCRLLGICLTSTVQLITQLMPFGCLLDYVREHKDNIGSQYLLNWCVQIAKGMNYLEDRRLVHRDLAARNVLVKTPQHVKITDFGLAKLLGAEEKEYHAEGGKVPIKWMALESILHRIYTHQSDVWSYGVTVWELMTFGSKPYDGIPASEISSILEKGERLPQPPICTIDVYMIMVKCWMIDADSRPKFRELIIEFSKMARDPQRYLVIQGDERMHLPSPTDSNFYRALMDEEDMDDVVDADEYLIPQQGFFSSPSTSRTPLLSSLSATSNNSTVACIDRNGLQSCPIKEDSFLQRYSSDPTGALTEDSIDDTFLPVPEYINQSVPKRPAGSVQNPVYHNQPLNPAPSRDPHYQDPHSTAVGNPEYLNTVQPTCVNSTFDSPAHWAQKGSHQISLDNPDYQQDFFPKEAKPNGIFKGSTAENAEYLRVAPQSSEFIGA", "assay": "EGF-R autophosphorylation, immunokinase assay of A431 cells", "assay_type": "biochemical"}, "[1]": {"tested_on": "PLCγ phosphorylation by RET/PTC", "assay": "Activation (phosphorylation) of PLCγ by RET/PTC in Ret-PTC3-5 cells", "assay_type": "cell-based", "details": "Ret-PTC3-5 cells, doxycycline, inhibitor for 24 h; read-out: IC50 of inhibition of PLCγ phosphorylation", "description": "Ret-PTC3-5 cells are seeded at 1×10^5 cells/well in 6-well Corning plates. After 3 days, cells are treated with or without doxycycline in the presence of the selected concentration of inhibitor dissolved in solvent for 24 h. Cells are rinsed twice with cold PBS containing 0.1 mM sodium orthovanadate, and left for 20 minutes in ice-cold RIPA buffer. Cell lysates are collected by centrifugation at 4C, and pelletted at 10,000×g for 20 min. Protein assays are performed on aliquots of supernatants by the Coomassie Blue assay (Pierce, Rockford, Ill.). 650 μg of protein are incubated with anti-PLC γ antibody (SantaCruz) or normal IgG overnight. The immune complexes are precipitated with proteinAG agarose (Santa Cruz) previously washed with RIPA buffer as described. After three washes with RIPA buffer, precipitates are eluted into 30 μl sample buffer, heated 10 min at 95 C, and ran on SDS-PAGE gel for Western blot analysis. Blots are initially probed with anti-phosphotyrosine. Loading is normalized by probing with anti-PLC γ antibody (SantaCruz).\nIt was shown before that upon activation, RET associates with and phosphorylates PLCγ. To further explore the effects of PKI166 on RET kinase activity, the impact of pretreatment with the compound on PLCγ phosphorylation is examined. When grown in the absence of doxycycline, there is no detectable PLCγ phosphorylation. […]"}},
  "note": "“Also recorded” adds a separate entry of the source.",
  "data": [
    {"smiles": "C[C@@H](Nc1ncnc2[nH]c(-c3ccc(O)cc3)cc12)c1ccccc1", "note": "[PKI166, (R)-6-(4-hydroxy-phenyl)-4-[(1-phenyl-ethyl)-amino]-7H-pyrrolo[2,3-d]-pyrimidine]", "values": [
      {"measurement": "inhibition of cell growth of RET-transformed fibroblasts", "setting": "NIH3T3-RETC634Y cells", "result": "inhibits the growth; also recorded: powerful, concentration dependent inhibition of cell growth"},
      {"measurement": "IC50", "setting": "RET/PTC3", "result": "~17.7", "unit": "nM"},
      {"measurement": "effect on growth of wild-type NIH3T3 cells", "setting": "wild-type NIH3T3 cells", "result": "no effect"},
      {"measurement": "effect on insulin receptor autophosphorylation", "setting": "insulin receptor", "result": "no effects"},
      {"measurement": "IC50", "setting": "EGF-R", "result": 8, "unit": "nM"},
      {"measurement": "IC50", "setting": "[1]", "result": "~4", "unit": "nM"}
    ]}
  ]
}
